# Source: patent US20240148821A1, “PHARMACEUTICAL USE OF CYCLIC PEPTIDE COMPOUND” (CHUGAI SEIYAKU KABUSHIKI KAISHA, priority 2021, published 2024)
# Numbered stars: 1 amine (or outer) side, 2 acyl side, 3 side chain; on linkers, the order of the positions; unused ones are H or OH. Bridge positions count the residues as written; N and C are the ends. Square brackets hold non-standard residues; d marks the D form. Peptide text beside a SMILES is read from it. * marks the point of attachment. hPhe(3,5-F2-4-CF3) = N[C@@H](CCc1cc(F)c(C(F)(F)F)c(F)c1)C(=O)O; hPhe(3-Cl-4-CF3) = N[C@@H](CCc1ccc(C(F)(F)F)c(Cl)c1)C(=O)O; hPhe(3-F,4-CF3) = N[C@@H](CCc1ccc(C(F)(F)F)c(F)c1)C(=O)O; X15 = O=C([C@H](CCc1cc(Cl)c(Cl)c(Cl)c1)N[*:1])[*:2]; 3Oxa8azabicyclo(3.2.1)octane = C1CC2COCC1N2*; X41 = CN([C@@H](CC=C1CCOCC1)C(=O)[*:2])[*:1]; NMePhe(4-Me) = CN[C@@H](Cc1ccc(C)cc1)C(=O)O; NMePhe(4-F) = CN[C@@H](Cc1ccc(F)cc1)C(=O)O; hPhe(4-Cl) = N[C@@H](CCc1ccc(Cl)cc1)C(=O)O; NMeAla(cPent) = CN[C@@H](CC1CCCC1)C(=O)O; NMeGly(cPent) = CN[C@H](C(=O)O)C1CCCC1; NMeGly(cBu) = CN[C@H](C(=O)O)C1CCC1; NMeCha = CN[C@@H](CC1CCCCC1)C(=O)O; NMehLeu = CN[C@@H](CCC(C)C)C(=O)O; Hyp = O=C(O)[C@@H]1C[C@@H](O)CN1; NMeChg = CN[C@H](C(=O)O)C1CCCCC1; NMeI = CC[C@H](C)[C@H](NC)C(=O)O; d(β3hL) = CC(C)C[C@@H](N)CC(=O)O; N(CH2CH2)2CF2 = FC1(F)CCN(*)CC1; NMeD = CN[C@@H](CC(=O)O)C(=O)O; CH2CONHtBu = CC(C)(C)NC(=O)C*; NMeL = CN[C@@H](CC(C)C)C(=O)O; NMeV = CN[C@H](C(=O)O)C(C)C; d(β3hA) = C[C@@H](N)CC(=O)O; Azetidin(1-yl) = C1CN(*)C1; NMeS = CN[C@@H](CO)C(=O)O; Morpholide = C1CN(*)CCO1; NMeA = CN[C@@H](C)C(=O)O; Piperidide = C1CCN(*)CC1; Ac5c = NC1(C(=O)O)CCCC1; Aze = O=C(O)[C@@H]1CCN1; Isopentyl = CC(C)CC*; NEtG = CCNCC(=O)O; X9 = c1cncc(C*)c1; Sar = CNCC(=O)O; Propyl = CCC*
# Molecular target: protein-protein interaction between Kras and SOS1 (biotin-tagged human Kras loaded with GDP, His-tagged human SOS1) (Homo sapiens (Human), UniProt P01116, G12D)
# Experiment: Protein-protein interaction inhibition between Kras and SOS1 (KrasG12D-SOS PPI) using AlphaScreen;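 also: kras produced in E. coli, Ni-coupled donor beads and streptavidin acceptor beads, excitation 680 nm with emission detected at 520–620 nm via singlet oxygen transfer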
# Format: biochemical
# Conditions: AlphaScreen; biotin-tagged human Kras loaded with GDP, His-tagged human SOS1; read-out: KRAS G12D-SOS PPI IC50
row,SMILES,IC50 [nM]
1,CC[C@H](C)[C@@H]1NC(=O)[C@H](CC(C)C)N(C)C(=O)C[C@@H](C)NC(=O)[C@H](CC(C)C)N(C)C(=O)C2(CCCC2)NC(=O)[C@H](COCC(=O)NC(C)(C)C)N(C)C(=O)[C@H](CCc2ccc(C(F)(F)F)c(Cl)c2)NC(=O)CN(C)C(=O)[C@H](COCCC(C)C)N(C)C(=O)CN(C)C(=O)CN(C)C1=O [Compound 1492] (cyclo([Ac5c][NMeL][d(β3hA)][NMeL]I[Sar][Sar][NMeS](Isopentyl)[Sar][hPhe(3-Cl-4-CF3)][NMeS](CH2CONHtBu))),240
2,CC[C@H](C)[C@@H]1NC(=O)[C@H](CC(C)C)N(C)C(=O)C[C@@H](C(=O)N2CCCCC2)N(C)C(=O)[C@H](C2CCCCC2)N(C)C(=O)C2(CCCC2)NC(=O)[C@@H]2C[C@@H](OCc3cccnc3)CN2C(=O)[C@H](CCc2ccc(C(F)(F)F)c(Cl)c2)NC(=O)CN(C)C(=O)[C@H](CC2CCCCC2)N(C)C(=O)CN(C)C(=O)CN(C)C1=O [Compound 2121] ([NMeL]I[Sar][Sar][NMeCha][Sar][hPhe(3-Cl-4-CF3)][Hyp](X9)[Ac5c][NMeChg][NMeD]-Piperidide; lactam N-11),0.56
3,"CC[C@H](C)[C@@H]1NC(=O)[C@H](CC(C)C)N(C)C(=O)C[C@@H](C(=O)N2CCCCC2)N(C)C(=O)[C@H](C2CCCCC2)N(C)C(=O)C2(CCCC2)NC(=O)[C@H](CC=C2CCOCC2)N(C)C(=O)[C@H](CCc2ccc(C(F)(F)F)c(Cl)c2)NC(=O)CN(C)C(=O)[C@H](CC2CCCCC2)N(C)C(=O)CN(C)C(=O)CN(C)C1=O [Compound 2053, (8S,11S,17S,26S,29S,33S,36S)-11-[2-[3-chloro-4-(trifluoromethyl)phenyl]ethyl]-36-cyclohexyl-17-(cyclohexylmethyl)-29-isobutyl-9,15,18,21,24,30,34,37-octamethyl-26-[(1S)-1-methylpropyl]-33-(piperidine-1-carbonyl)-8-(2-tetrahydropyran-4-ylideneethyl)-6,9,12,15,18,21,24,27,30,34,37-undecazaspiro[4.33]octatriacontane-7,10,13,16,19,22,25,28,31,35,38-undecone] ([NMeL]I[Sar][Sar][NMeCha][Sar][hPhe(3-Cl-4-CF3)][X41][Ac5c][NMeChg][NMeD]-Piperidide; lactam N-11)",10
4,CC[C@H](C)[C@@H]1NC(=O)[C@H](C2CCC2)N(C)C(=O)C[C@@H](C(=O)N2CCCCC2)N(C)C(=O)[C@H](C(C)C)N(C)C(=O)C2(CCCC2)NC(=O)[C@@H]2CCCN2C(=O)[C@H](CCc2ccc(C(F)(F)F)c(Cl)c2)NC(=O)CN(C)C(=O)[C@H](CC2CCCCC2)N(C)C(=O)[C@@H]2CCN2C(=O)[C@H](C)N(C)C1=O [Compound 1036] ([NMeGly(cBu)]I[NMeA][Aze][NMeCha][Sar][hPhe(3-Cl-4-CF3)]P[Ac5c][NMeV][NMeD]-Piperidide; lactam N-11),7.7
5,CC[C@H](C)[C@@H]1NC(=O)[C@H](CC2CCCC2)N(C)C(=O)C[C@@H](C(=O)N2CCOCC2)N(C)C(=O)[C@H](C2CCCC2)N(C)C(=O)C2(CCCC2)NC(=O)[C@@H]2CCCN2C(=O)[C@H](CCc2ccc(C(F)(F)F)c(Cl)c2)NC(=O)CN(C)C(=O)[C@H](CC2CCCCC2)N(C)C(=O)[C@@H]2CCN2C(=O)[C@H](C)NC1=O [Compound 1176] ([NMeAla(cPent)]IA[Aze][NMeCha][Sar][hPhe(3-Cl-4-CF3)]P[Ac5c][NMeGly(cPent)][NMeD]-Morpholide; lactam N-11),0.8
6,CC[C@H](C)[C@@H]1NC(=O)[C@H](CC(C)C)N(C)C(=O)C[C@@H](C(=O)N2CCCCC2)N(C)C(=O)[C@H](C(C)C)N(C)C(=O)C2(CCCC2)NC(=O)[C@@H]2CCCN2C(=O)[C@H](CCc2ccc(Cl)cc2)NC(=O)CN(C)C(=O)[C@H](CC2CCCCC2)N(C)C(=O)CN(C)C(=O)[C@@H]2CCCN2C1=O [Compound 530] ([NMeL]IP[Sar][NMeCha][Sar][hPhe(4-Cl)]P[Ac5c][NMeV][NMeD]-Piperidide; lactam N-11),140
7,"CC[C@H](C)[C@@H]1NC(=O)[C@H](CC(C)C)N(C)C(=O)C[C@@H](CC(C)C)NC(=O)[C@H]([C@@H](C)CC)N(C)C(=O)C2(CCCC2)NC(=O)[C@@H]2CCCN2C(=O)[C@H](CCc2cc(F)c(C(F)(F)F)c(F)c2)NC(=O)CN(C)C(=O)[C@H](Cc2ccc(C)cc2)N(C)C(=O)[C@@H]2CCN2C(=O)[C@H](C)N(C)C1=O [Compound 1891] (cyclo([Ac5c][NMeI][d(β3hL)][NMeL]I[NMeA][Aze][NMePhe(4-Me)][Sar][hPhe(3,5-F2-4-CF3)]P))",230
8,CC[C@H](C)[C@@H]1NC(=O)[C@H](CC(C)C)N(C)C(=O)C[C@@H](C(=O)N2CCCCC2)N(C)C(=O)[C@H]([C@@H](C)CC)N(C)C(=O)C2(CCCC2)NC(=O)[C@@H]2CCCN2C(=O)[C@H](CCc2ccc(C(F)(F)F)c(Cl)c2)NC(=O)CN(C)C(=O)[C@H](Cc2ccc(F)cc2)N(C)C(=O)[C@@H]2CCN2C(=O)[C@H](C)N(C)C1=O [Compound 1060] ([NMeL]I[NMeA][Aze][NMePhe(4-F)][Sar][hPhe(3-Cl-4-CF3)]P[Ac5c][NMeI][NMeD]-Piperidide; lactam N-11),0.65
9,CC[C@H](C)[C@@H]1NC(=O)[C@H](CC(C)C)N(C)C(=O)C[C@@H](C(=O)N2CCC2)N(C)C(=O)[C@H](C2CCCC2)N(C)C(=O)C2(CCCC2)NC(=O)[C@@H]2CCCN2C(=O)[C@H](CCc2ccc(C(F)(F)F)c(Cl)c2)NC(=O)CN(CC)C(=O)[C@H](CC2CCCCC2)N(C)C(=O)[C@@H]2CCN2C(=O)[C@H](C)N(C)C1=O [Compound 726] ([NMeL]I[NMeA][Aze][NMeCha][NEtG][hPhe(3-Cl-4-CF3)]P[Ac5c][NMeGly(cPent)][NMeD]-{Azetidin(1-yl)}; lactam N-11),1.3
10,CC[C@H](C)[C@@H]1NC(=O)[C@H](CC(C)C)N(C)C(=O)C[C@@H](C(=O)N2CCCCC2)NC(=O)[C@H](C(C)C)N(C)C(=O)C2(CCCC2)NC(=O)[C@H](CC(=O)N2CCC(F)(F)CC2)N(C)C(=O)[C@H](CCc2ccc(C(F)(F)F)c(Cl)c2)NC(=O)CN(C)C(=O)[C@H](CC2CCCCC2)N(C)C(=O)CN(C)C(=O)CN(C)C1=O [Compound 3] ([NMeL]I[Sar][Sar][NMeCha][Sar][hPhe(3-Cl-4-CF3)][NMeD](N(CH2CH2)2CF2)[Ac5c][NMeV]D-Piperidide; lactam N-11),310
11,"CC[C@H](C)[C@@H]1NC(=O)[C@H](CCC(C)C)N(C)C(=O)C[C@@H](C(=O)N(C)C)N(C)C(=O)[C@H](C2CCCC2)N(C)C(=O)C2(CCCC2)NC(=O)[C@@H]2CCCN2C(=O)[C@H](CCc2ccc(C(F)(F)F)c(F)c2)NC(=O)CN(C)C(=O)[C@H](CC2CCCCC2)N(C)C(=O)[C@@H]2CCN2C(=O)[C@H](C)NC1=O [Compound 1292] ([NMehLeu]IA[Aze][NMeCha][Sar][hPhe(3-F,4-CF3)]P[Ac5c][NMeGly(cPent)][NMeD]-NMe2; lactam N-11)",2
12,"CC[C@H](C)[C@@H]1NC(=O)[C@H](C)N(C)C(=O)C[C@@H](C(=O)N2CCCCC2)N(C)C(=O)[C@H](C2CCCCC2)N(C)C(=O)C2(CCCC2)NC(=O)[C@@H]2CCCN2C(=O)[C@H](CCc2cc(Cl)c(Cl)c(Cl)c2)NC(=O)CN(C)C(=O)[C@H](CC2CCCCC2)N(C)C(=O)CN(C)C(=O)CN(C)C1=O [Compound 2059, (3S,9S,18S,21S,25S,28S,34S)-28-cyclohexyl-9-(cyclohexylmethyl)-7,10,13,16,21,22,26,29-octamethyl-18-[(1S)-1-methylpropyl]-25-(piperidine-1-carbonyl)-3-[2-(3,4,5-trichlorophenyl)ethyl]spiro[1,4,7,10,13,16,19,22,26,29,32-undecazabicyclo[32.3.0]heptatriacontane-31,1′-cyclopentane]-2,5,8,11,14,17,20,23,27,30,33-undecone] ([NMeA]I[Sar][Sar][NMeCha][Sar][X15]P[Ac5c][NMeChg][NMeD]-Piperidide; lactam N-11)",0.96
13,"CC[C@H](C)[C@@H]1NC(=O)[C@H](CC(C)C)N(C)C(=O)C[C@@H](C(=O)N2CCCCC2)N(C)C(=O)[C@H](C2CCCCC2)N(C)C(=O)C2(CCCC2)NC(=O)[C@@H]2C[C@@H](O)CN2C(=O)[C@H](CCc2ccc(C(F)(F)F)c(Cl)c2)NC(=O)CN(C)C(=O)[C@H](CC2CCCCC2)N(C)C(=O)CN(C)C(=O)CN(C)C1=O [Compound 1376, (3S,9S,18S,21S,25S,28S,34S,36R)-3-[2-[3-chloro-4-(trifluoromethyl)phenyl]ethyl]-28-cyclohexyl-9-(cyclohexylmethyl)-36-hydroxy-21-isobutyl-7,10,13,16,22,26,29-heptamethyl-18-[(1S)-1-methylpropyl]-25-(piperidine-1-carbonyl)spiro[1,4,7,10,13,16,19,22,26,29,32-undecazabicyclo[32.3.0]heptatriacontane-31,1′-cyclopentane]-2,5,8,11,14,17,20,23,27,30,33-undecone] ([NMeL]I[Sar][Sar][NMeCha][Sar][hPhe(3-Cl-4-CF3)][Hyp][Ac5c][NMeChg][NMeD]-Piperidide; lactam N-11)",0.71
14,CC[C@H](C)[C@@H]1NC(=O)[C@H](CC(C)C)N(C)C(=O)C[C@@H](C(=O)N2CCC2)N(C)C(=O)[C@H](C(C)C)N(C)C(=O)C2(CCCC2)NC(=O)[C@@H]2CCCN2C(=O)[C@H](CCc2ccc(C(F)(F)F)c(Cl)c2)NC(=O)CN(C)C(=O)[C@H](CC2CCCCC2)N(C)C(=O)[C@@H]2CCN2C(=O)[C@H](C)N(C)C1=O [Compound 256] ([NMeL]I[NMeA][Aze][NMeCha][Sar][hPhe(3-Cl-4-CF3)]P[Ac5c][NMeV][NMeD]-{Azetidin(1-yl)}; lactam N-11),0.98
15,CCCOC[C@H]1C(=O)N(C)CC(=O)N[C@@H](CCc2ccc(C(F)(F)F)c(Cl)c2)C(=O)N2CCC[C@H]2C(=O)NC2(CCCC2)C(=O)N(C)[C@@H](C2CCCC2)C(=O)N(C)[C@H](C(=O)N2C3CCC2COC3)CC(=O)N(C)[C@@H](CC2CCCC2)C(=O)N[C@@H]([C@@H](C)CC)C(=O)N(C)[C@@H](C)C(=O)N2CC[C@H]2C(=O)N1C [Compound 1251] ([NMeAla(cPent)]I[NMeA][Aze][NMeS](Propyl)[Sar][hPhe(3-Cl-4-CF3)]P[Ac5c][NMeGly(cPent)][NMeD]-{3Oxa8azabicyclo(3.2.1)octane}; lactam N-11),2.6
